# Experimental data published in patent publication US12441988B2, “Engineered adult-like human heart tissue” (THE TRUSTEES OF COLUMBIA UNIVERSITY IN THE CITY OF NEW YORK, priority 2015, dated 2025).
# “Also recorded” adds a separate entry of the source.
# Assays:
# Type in all cases: cell-based, human
# TS organoids [1] = experiment: Timothy Syndrome disease model, calcium transients and EADs
# Procedure: Timothy Syndrome hiPSCs were generated and differentiated into CMs as previously described. Briefly, fibroblasts were isolated from patients with Timothy Syndrome (TS line) and a control healthy fibroblast line (#3, IMR90 cell line) and transduced by lipofection using established episomal vectors. […] 2 μM IWP-3 (Wnt inhibitor, #SML0533, Lot #102m4613V, Sigma-Aldrich) was added for days 5-11, in DF20 for days 5-7 and DF5 for day 7 onwards.
# (§1) Tissues (organoids and FCTs) within culture platforms were loaded with Fluo-4 NW (50% v/v, Life Technologies) in RPMI+B27 media containing 5 μM blebbistatin (Sigma) to reduce movement artifacts, for 30 minutes at 37° C. Videos were acquired at a rate of 150 frames per second using a Pike F-032 camera (Allied Vision Technologies) controlled by the custom designed, free-source SPLASSH software. Videos were analyzed in MATLAB using a custom script that calculated the temporal changes in calcium fluorescence intensity. Specifically, each frame was normalized to a baseline background region to give baseline-corrected changes in minimum and maximum fluorescence values for each frame. This temporal change in fluorescence intensity was presented as a calcium transient trace from which measurements were obtained.
# (§2) Calcium transients were analyzed to measure the irregularity of various parameters as previously described. Briefly, the calcium transient “timing” was determined as the peak-to peak value of two successive beats as defined by the peak maxima. Calcium transient “amplitude” was determined by numerically integrating the area below the peak maxima relative to the baseline. […] The average rhythmicity was defined as the ratio of the parameter standard deviation to the parameter mean of the corresponding (control, constant, intensity) tissue group. Beats with parameter measurements falling outside two standard deviations from the average rhythmicity were classified as irregular.
# hiPS-CM organoids [2] = experiment: Calcium handling (Fluo-4 calcium transients) in organoids and FCTs; settings: for calcium transients after drug: organoids and FCTs, verapamil or 0.002 mM thapsigargin
# Procedure: Calcium transients were analyzed using the Fluo-4 NW dye in RPMI+B27 media containing 5 μM blebbistatin to reduce movement artifacts, for 30 minutes at 37° C. Videos were acquired at a rate of 150 frames per second using a Pike F-032 camera controlled by the custom-designed, free-source SPLASSH software. Videos were analyzed in MATLAB using a custom script that calculated the temporal changes in calcium fluorescence intensity. Each frame was normalized to a baseline background region to give baseline corrected changes in minimum and maximum fluorescence values for each frame. This temporal change in fluorescence intensity was presented as a calcium transient trace. The calcium transient timing was determined as the peak-to-peak value of two successive beats as defined by the peak maxima. Calcium transient amplitude was determined by numerically integrating the area below the peak maxima relative to the baseline. […] The average rhythmicity was defined as the ratio of the parameter standard deviation to the parameter mean of the corresponding (control, constant, intensity) tissue group. Beats with parameter measurements falling outside two standard deviations from the average rhythmicity were classified as irregular.
# as §1, §2
# TS organoids [3] = experiment: Timothy Syndrome disease model, force generation in response to extracellular calcium; settings: Ca2+ overload with decreased force
# hiPS-CM organoids [4] = experiment: Dose response curves of drugs in engineered cardiac tissue (beat frequency, force, EC50); settings: for beat frequency (BPM): engineered cardiac micro-tissue, increasing drug concentrations
# Procedure: Tissue contractility was measured by tracking the change in the projected tissue area as a function of time. Live cell, bright field videos were acquired at rates of 150 frames per second using a Pike F-032b (Allied Vision Technologies) camera controlled with the custom […] software. Acquired video frames were inverted and an automated intensity threshold was used to identify cell location in the video frame. First, a baseline time point in the video corresponding to a relaxed tissue state was selected. Absolute differences in cell area from the baseline frame were then calculated to create a time course of cell area dynamics as a function of time. The resulting time courses were analyzed with a native MATLAB automated peak finding algorithm to determine locations of maximum cell contraction indicated by the locations of local maxima in the time courses. Beat period lengths were determined from the length of time between pairs of local maxima. Beat frequencies were determined by inverting beat periods. Contraction amplitude relaxation times were measured from the length of time required for the time course to relax in amplitude from the peak contraction amplitude of the local maxima to the calculated relaxation amplitude (e.g. the […] time was the length of time elapsed from the local maxima until the contraction time course reached 10% of the local maximum contraction difference amplitude). Drugs were diluted in standard media (RPMI+B27). […] Tissue videos were captured≥5 minutes after each dose was administered, and processed using custom image processing software as discussed above. For chronotropic drugs, bright field videos were taken at each drug concentration so that measurements of the beat frequency could be determined as a function of drug concentration. For ionotropic drugs, tissues were placed in the organ bath and force measurements were recorded as previously described at each drug concentration so that the measurements of the change in force generated could be determined as a function of drug concentration. Dose-response curves for these parameters could be constructed by using Matlab to fit the Hill Equation for sigmoid curves to the data, to determine the corresponding EC50 value.
# hiPS-CM organoids [5] = experiment: Force measurements (twitch tension, organ bath); settings: intensity-trained organoids versus other organoids and FCTs
compound,measurement,setting,value
COc1ccc(CCN(C)CCCC(C#N)(c2ccc(OC)c(OC)c2)C(C)C)cc1OC (stereo not drawn) [verapamil],rescue of the TS phenotype,TS organoids [1]; therapeutic concentrations,rescued the phenotype
same,calcium transients after drug,hiPS-CM organoids [2],cessation of calcium transients in all tissues; also recorded: cessation of Ca2+ transients
CC(C)NCC(O)COc1cccc2ccccc12 (stereo not drawn) [propranolol],force generation in response to extracellular calcium,TS organoids [3],reversed some of these effects
Cn1c(=O)c2c(ncn2C)n(C)c1=O [caffeine],release of Ca2+ by caffeine after nifedipine,TS organoids [1],released Ca2+ back into the cytosol
COc1cc(N)c(Cl)cc1C(=O)NC1CCN(CCCOc2ccc(F)cc2)CC1OC (stereo not drawn) [cisapride],incidence of EADs,TS organoids [1],increased incidence of EADs
same,proarrhythmic Early After Depolarizations,"hiPS-CM organoids [2]; female cardiac organoids, 1 μM",increased proarrythmic Early After Depolarizations
same,"intracellular calcium transients, early after-depolarizations (EADs)","hiPS-CM organoids [2]; intensity-trained organoids, increasing concentrations",prolonged
same,proarrhythmic tendencies,hiPS-CM organoids [2]; other (not intensity-trained) organoids and FCTs,did not recapitulate proarrythmic tendencies
same,beat frequency (BPM),hiPS-CM organoids [4],opposite effect
O=C1c2c(O)ccc(O)c2C(=O)c2c(NCCNCCO)ccc(NCCNCCO)c21 [mitoxantrone],beat frequency (BPM),hiPS-CM organoids [4],opposite effect
ryanodine,response to ryanodine,"hiPS-CM organoids [2]; 1 μmol/L, early-stage versus late-stage intensity trained organoids",intensity trained early-stage but not late-stage organoids respond
C/C=C(/C)C(=O)O[C@H]1C(C)=C2[C@H]([C@@H]1OC(=O)CCCCCCC)[C@@](C)(OC(C)=O)C[C@H](OC(=O)CCC)[C@@]1(O)[C@H]2OC(=O)[C@@]1(C)O [thapsigargin],calcium transients after drug,hiPS-CM organoids [2],calcium transients ceased quickly in intensity-trained organoids
CC(C)NCC(O)c1ccc(O)c(O)c1 (stereo not drawn) [isoproterenol],"calcium transients, QT intervals, EADs under β-adrenergic stimulation",TS organoids [1],"increased calcium transients, prolonged QT intervals, and led to proarrhythmic EADs"
same,twitch tension,hiPS-CM organoids [5],responded by increasing twitch tension
same,twitch tension,hiPS-CM organoids [5]; listed as Isoprenaline,significantly increased their twitch tension
same,beat frequency (BPM),hiPS-CM organoids [4],increases with increasing concentrations
same,"ionotropic, lusitropic and chronotropic responses",hiPS-CM organoids [4]; intensity-trained organoids,"positive ionotropic (FIG. 23A), lusitropic (FIG. 23B), and chronotropic (FIG. 23C) responses; also recorded: dose-dependent effect on three functional properties"
CNC[C@H](O)c1ccc(O)c(O)c1 [epinephrine],incidence of EADs,TS organoids [1],increased incidence of EADs
